Here are results for two substances from article PMC6973020, “Quinoline‐Conjugated Ruthenacarboranes: Toward Hybrid Drugs with a Dual Mode of Action” (Chemmedchem, 2019).

Several values for one entry are separate records, joined by “and”; a condition that tells them apart may be missing. Identical values can stand only once. Where only a bound is given, the exact number is not on record here.

Assay [1] concerns B16 mouse melanoma. The assay is described as follows: MTT cell viability assay, B16. The conditions noted are these: 72 h. Format: cell-based. The source says: (§1) Thus, care must be taken when comparing their biological activities with those of our previous studies, even with the same cell line, because the covalent vs. non‐covalent combination of drugs might imply different mechanisms of action in the cell.44 Here, we studied the in vitro activity of ruthenacarborane 3, i. e. free acid, and its 8‐hydroxyquinolyl (4) and 4‐{(7‐chloroquinolin‐4‐yl)oxy}butanol‐1‐yl (5) esters, against a panel of cancer cell lines (B16 mouse melanoma, A375 human skin melanoma, MCF‐7 human breast adenocarcinoma, LN229 human glioblastoma, U251 human glioma). Human fibroblast cell line MRC‐5, murine microglial cell line BV‐2 as well as peritoneal exudate cells (Mph), were chosen as models for non‐malignant cells. […] On the other side, we wanted to assess the reproducibility of the viability data, under either controlled (with BSA) or uncontrolled (without BSA) conditions, in two sets of independent assays. […] Cells were exposed to 3–5 for 72 h, after which cell viability was determined via 3‐(4,5‐dimethylthiazol‐2‐yl)‐2,5‐diphenyltetrazolium bromide (MTT) and crystal violet (CV) assays, in parallel (Table 2). Cisplatin was also tested as reference.
(§2) Preparation of drug solutions. […] Stock solution of cisplatin was prepared in DMF (10 mM) immediately before use. A stock solution of BSA in PBS was prepared at 1.28 mM concentration, and stored at 4 °C in the dark. […] Alternatively, 3 or 4 (DMSO stock solution) were added to the BSA solution in PBS, always with a 10 : 1 molar ratio of BSA to ruthenacarborane. The BSA−ruthenacarborane solutions were incubated 0.5–1 h at room temperature, then diluted with cell culture medium to the desired final concentrations. Final concentrations of 3 and 4 were the same as for the BSA‐free formulation. Final DMSO was 0.02–0.5 vol %.
(§3) Colorimetric assays for cellular viability. […] For counting the number of attached (viable) cells, cells were fixed with 4 % (w/v) paraformaldehyde for 10 min at room temperature, and subsequently stained for 15 min with […] crystal violet (CV) solution. Cells were then washed with tap water, dried in air, and the CV dye was dissolved in 33 % (w/v) acetic acid solution. For the detection of mitochondrial respiration, cells were cultivated in MTT staining solution (0.5 mg mL^−1) for approximately 1 h. The dye was then discarded, and the formed formazan (purple) was dissolved in DMSO. The absorbance was measured with an automated microplate reader at λmax 540 nm, with the reference λmax 670 nm. Untreated cells or cells treated only with BSA (control) were also measured, as reference for BSA‐free and BSA‐containing drug formulations, respectively. […] Cell viability is expressed as percentage (%) relative to control (untreated cultures).58 Experiments were run in three independent replicates. […]

The subject of assay [2] is U251 human glioma. Briefly: MTT cell viability assay, U251. As to conditions: 72 h. Format: cell-based.
Text: as §1, §2, §3
In general terms: Formazan colour is commonly taken as a measure of viable cells.

Assay [3] deals with primary non‐malignant mouse macrophages (Mph). The assay is described as follows: Crystal violet (CV) cell viability assay, peritoneal macrophages (Mph). Format: cell-based. As to conditions: 72 h.
Text: as §1
(§4) Preparation of drug solutions. […] Stock solution of cisplatin was prepared in DMF (10 mM) immediately before use. A stock solution of BSA in PBS was prepared at 1.28 mM concentration, and stored at 4 °C in the dark. […] Alternatively, 3 or 4 (DMSO stock solution) were added to the BSA solution in PBS, always with a 10 : 1 molar ratio of BSA to ruthenacarborane. […]
(§5) Colorimetric assays for cellular viability. […] The absorbance was measured with an automated microplate reader at λmax 540 nm, with the reference λmax 670 nm. Untreated cells or cells treated only with BSA (control) were also measured, as reference for BSA‐free and BSA‐containing drug formulations, respectively. […] Cell viability is expressed as percentage (%) relative to control (untreated cultures).58 Experiments were run in three independent replicates. […]

Assay [4] deals with MCF‐7 human breast adenocarcinoma. The assay is described as follows: MTT cell viability assay, MCF‐7. The class given is cell-based. The conditions noted are these: 72 h.
Text: as §1, §2, §3

For assay [5], the system named is murine microglial cell line BV‐2. Briefly: Crystal violet (CV) cell viability assay, BV‐2. The class given is cell-based, mouse. As to conditions: 72 h.
Text: as §1, §4, §5

Assay [6] concerns MCF‐7 cells. Briefly: ApoStat staining (caspase activation), MCF‐7. The class given is cell-based, human. As to conditions: MCF‐7, 20 μM, 72 h. As for the experimental part:
Flow cytometry. For gaining better insights into the mechanisms of action of the ruthenium complexes, MCF‐7 and LN229 cells incubated with an IC50 dose of 3 or 4, were analyzed via flow cytometry. Several staining protocols were carried out in parallel, in independent experiments: i) AnnV/PI for the detection of apoptotic cell death, ii) AO for the detection of acidic vacuoles, iii) ApoStat for checking caspase activation, iv) CFSE for detecting interference with cellular proliferation, and v) DAPI for the detection of morphological signs of apoptosis. Untreated cells or cells treated only with BSA (control) were also measured, as reference for BSA‐free and BSA‐containing drug formulations, respectively. […] Channels FL1 (green emission), FL2 (orange emission) and/or FL3 (dark red emission) were used for fluorescence detection, according to the specific staining agent. Sideward Scatter (SSC) for MCF‐7 cells treated with 4 or BSA−4 was also analyzed, with respect to the control, for detection of shifts of cell granularity. […]
Staining Protocols for Flow Cytometric Analysis. […] Finally, cells were washed in PBS, resuspended in PBS (or AnnV‐binding buffer for AnnV/PI), and analysed. […] Cells were then washed, trypsinised, dissolved in PBS and analysed by CyFlow® Space Partec using the PartecFloMax® software (Partec GmbH, Münster, Germany). […]

One may read the IC50 as the midpoint of a concentration-inhibition curve. As for “closo ‐[3‐(η^6‐p‐Cymene)‐1‐(quinolin‐8‐yl‐acetate)‐3,1,2‐RuC2B9H10] [Compound 4]”, the IC50 was determined as 20.4 ± 2.1 µM in assay [1]; 46.2 ± 1.9 µM in assay [2]; 94 ± 7.7 µM in assay [3]; 15.9 ± 0.2 µM in assay [4]; 9.2 ± 0.1 µM in assay [5]. The “caspase activation (ApoStat)” value in assay [6] was “caspase‐independent apoptosis”.

As for “closo‐ [Compound 3, closo‐ [3‐(η^6‐p‐Cymene)‐1‐(CH2COOH)‐3,1,2‐RuC2B9H10]]”, the IC50 in assay [1] was 19.4 ± 0.9 µM; in assay [2] it was over 100 µM; in assay [3], 49 µM and 49.1 µM; in assay [4], 7.7 ± 0.8 µM; in assay [5] it was 68.2 ± 1.3 µM. For the same substance, the “caspase activation (ApoStat)” value in assay [6] is recorded as “induce caspase activation”.
